# Measurements taken from PubChem BioAssay (NCI).
# Where “and” joins values, the source holds several entries; their conditions need not be identical. Identical values can stand only once.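 Cultured in 96-well plates, cells were exposed to test compound for 48 hours across five concentrations. Abbreviation: GI50, concentration required for 50% inhibition of growth. TGI is the concentration that stops growth completely.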
# Tests used:
# Assay in all cases: growth of human tumour cells (NCI), 48 h
# OVCAR-5 ovarian = test system: OVCAR-5 ovarian
# HCC-2998 colon = test system: HCC-2998 colon
# A549 NSCLC = test system: A549 NSCLC
# SK-MEL-2 melanoma = test system: SK-MEL-2 melanoma
# CCRF-CEM leukemia = test system: CCRF-CEM leukemia
# KM12 colon = test system: KM12 colon
# HOP-62 NSCLC = test system: HOP-62 NSCLC
# COLO 205 colon = test system: COLO 205 colon
# SR leukemia = test system: SR leukemia
# UACC-257 melanoma = test system: UACC-257 melanoma
Compound,GI50 (OVCAR-5 ovarian),TGI (OVCAR-5 ovarian),GI50 (HCC-2998 colon),TGI (HCC-2998 colon),GI50 (A549 NSCLC),TGI (A549 NSCLC),GI50 (SK-MEL-2 melanoma) [µM],TGI (SK-MEL-2 melanoma),GI50 (CCRF-CEM leukemia),TGI (CCRF-CEM leukemia),GI50 (KM12 colon),TGI (KM12 colon),GI50 (HOP-62 NSCLC),TGI (HOP-62 NSCLC),GI50 (COLO 205 colon),TGI (COLO 205 colon),GI50 (SR leukemia),TGI (SR leukemia),GI50 (UACC-257 melanoma),TGI (UACC-257 melanoma)
C#Cc1ccc(-n2c(/C=C/c3ccc(C(F)(F)F)cc3)nc3ncccc3c2=O)cc1,1.94 µM,3.56 µM,1.96 µM,3.47 µM,1.83 µM,4.56 µM,2.03,4.09 µM,1.95 µM,> 100 µM,1.79 µM,3.44 µM,2.43 µM,5.11 µM,2.23 µM,4.48 µM,2 µM,8.08 µM,1.56 µM,2.95 µM
CCCCCN(CCCCC)CC(O)c1cc(C)c2ccc3cc(C(C)C)ccc3c2c1 (stereo unspecified),1.8 µM,3.66 µM,1.85 µM,3.4 µM,2.61 µM,5.58 µM,2.2,4.83 µM,2.19 µM,5.53 µM,1.8 µM,3.36 µM,2.12 µM,5.7 µM,2.08 µM,4.22 µM,0.836 µM,3.17 µM,1.99 µM,3.97 µM
O=S(=O)(NC1=NCCN1C(=S)SN1CCn2c1nsc2=S)c1ccc(OC(F)(F)F)cc1,21.8 µM,36.7 µM,12.7 µM,26.1 µM,21.1 µM,54.3 µM,6.58,21 µM,4.01 µM,> 100 µM,8.11 µM,22.8 µM,16.3 µM,33 µM,10.7 µM,28.2 µM,1.74 µM,5.76 µM,15.5 µM,30 µM
CC[C@@]1(O)C[C@H](OC2CC(N(C)C)C(O)C(C)O2)c2c(O)c3c(c(O)c2[C@H]1OC1CC(N(C)C)C(O)C(C)O1)C(=O)c1cccc(O)c1C3=O (stereo partly specified),< 0.01 µM,–,< 0.01 µM,0.0759 µM and 0.0216 µM,–,–,< 0.01,0.0568 µM and < 0.01 µM,< 0.01 µM,0.204 µM,< 0.01 µM,–,< 0.01 µM,0.192 µM,< 0.01 µM,0.149 µM and 0.0297 µM,< 0.01 µM,0.0273 µM,< 0.01 µM,–
CCC(CO)Nc1nc2ccc(Cl)cc2c2ccccc12 (stereo unspecified),5.4 µM,19.7 µM,2.82 µM,10.6 µM,6.05 µM,20.4 µM,14.5,28.4 µM,4.24 µM,17.4 µM,5.3 µM,17.1 µM,7.95 µM,21 µM,11.9 µM,25.6 µM,1.57 µM,13.5 µM,15.3 µM,28.6 µM
COC(=O)[C@@H]1[C@H](O)[C@H](C)[C@H](O)[C@@](C)(O)/C=C\C=C(C)C(=O)Nc2c(C)c(OC(C)=O)c3c(c2O)C(=O)C(C)=C2OCOC(=C23)C(C)=C[C@@](C)(O)[C@H](O)[C@@H](C)[C@H]1OC(C)=O,–,> 100 µM,11.1 µM,> 100 µM and 66.9 µM,> 66.9 µM,> 100 µM,–,> 100 µM and 66.9 µM and 96.3 µM,12.8 µM,> 100 µM and 66.9 µM and 47.6 µM,> 66.9 µM,> 100 µM,–,> 100 µM and 66.9 µM,–,> 100 µM and 29 µM and 37.3 µM,58 µM and 24.3 µM and 28.4 µM,> 100 µM and 63.8 µM and 89 µM,35.2 µM,> 100 µM and 66.9 µM and 93.1 µM
Cc1nc2ccccc2c(=O)n1-c1ccccc1I,–,> 100 µM,–,> 100 µM,–,> 100 µM,–,> 100 µM,–,> 100 µM,–,–,–,> 100 µM,–,> 100 µM,–,> 100 µM,–,> 100 µM
Cc1ccc2c(=O)cc(-c3ccc(F)cc3)[nH]c2n1,–,> 100 µM,–,> 100 µM,–,> 100 µM,–,> 100 µM,–,> 100 µM,–,> 100 µM,–,> 100 µM,–,47.9 µM,–,34.4 µM,–,> 100 µM
O=C(/C=C/c1ccccc1)NC1C=Nc2ccc(Cl)cc2NC1=O (stereo unspecified),–,> 100 µM,–,65.5 µM,–,> 100 µM,–,> 100 µM,–,33.5 µM,–,56.8 µM,–,> 100 µM,–,33.9 µM,–,56.3 µM,–,87 µM
O=C(Nc1ccc(Cl)c(Cl)c1)Nc1ccc(Cl)c(Cl)c1,2.74 µM and 4.27 µM,7.53 µM and 17.6 µM,3.71 µM and 3.01 µM,13.4 µM and 11.5 µM,2.98 µM and 2.29 µM,15.6 µM and 10.6 µM,2.15,5.49 µM and 4.09 µM,3.36 µM and 1.97 µM,14.1 µM and 6.47 µM,3.04 µM and 2.52 µM,11.6 µM and 6.99 µM,3.02 µM and 5.73 µM,11.4 µM and 31.2 µM,1.77 µM and 2.07 µM,3.3 µM and 3.69 µM,2.7 µM and 2.26 µM,10.9 µM and 6.66 µM,2.39 µM and 2.05 µM,6.96 µM and 5.85 µM
CN1C(=O)C(C)(C)C2(SC(C)(C)C2(C)C)N(C)C1=S (stereo unspecified),–,> 100 µM,–,> 100 µM,–,> 100 µM,–,> 100 µM,–,> 100 µM,–,> 100 µM,–,> 100 µM,–,> 100 µM,–,> 100 µM,–,> 100 µM
O=C1CC(c2ccc3c(c2)OCO3)Nc2ccccc21 (stereo unspecified),11.1 µM,> 55.4 µM,15.8 µM,30.4 µM,17.1 µM,76.6 µM,12.7,> 62.8 µM,3.85 µM,> 100 µM,5.36 µM,20.8 µM,14.2 µM,86 µM,16.5 µM,37.2 µM,4.56 µM,> 100 µM,26.4 µM,> 60.4 µM
NC(=O)c1sc(-n2cnc3ccccc32)cc1OCc1ccccc1Br,4.94 µM,> 25 µM,6.38 µM,> 25 µM,6.06 µM,> 25 µM,6.43,> 25 µM,1.34 µM,> 25 µM,1.26 µM,> 25 µM,3.67 µM,> 25 µM,1.58 µM,23.2 µM,3.09 µM,> 25 µM,17.3 µM,> 25 µM
Clc1ccc2c(NCCCCNc3nc(N4CCCCC4)nc4ccccc34)ccnc2c1,2.17 µM,9.23 µM,1.96 µM,4.23 µM,3.15 µM,10.3 µM,1.98,4.02 µM,1.66 µM,5.23 µM,3.4 µM,13.1 µM,1.9 µM,5.88 µM,1.64 µM,3.59 µM,0.408 µM,2.88 µM,2.05 µM,3.68 µM
COC(=O)CC1CCN(C#N)CC1CC[N+](=O)[O-] (stereo unspecified),–,–,–,> 100 µM,–,> 100 µM,–,> 100 µM,–,> 100 µM,–,> 100 µM,–,> 100 µM,–,> 100 µM,–,> 100 µM,–,> 100 µM
N#CC(c1ccc(Cl)cc1)c1cccc(C(C#N)c2ccc(Cl)cc2)n1 (stereo unspecified),–,> 100 µM,–,> 100 µM,–,> 100 µM,–,83.2 µM,–,> 100 µM,–,> 100 µM,–,> 100 µM,–,43 µM,–,> 100 µM,–,> 100 µM
CCOc1ccc(NC(=O)C(=O)CC(=O)c2c[n+](=O)c3cc(C)c(C)cc3n2[O-])cc1,–,> 100 µM,–,> 100 µM,–,> 100 µM,–,> 100 µM,–,> 100 µM,–,> 100 µM,–,> 100 µM,–,> 100 µM,–,> 100 µM,–,> 100 µM
O=C(/C=C/C12c3ccccc3C(c3ccccc31)C1C(=O)NC(=O)C12)c1ccncc1 (stereo unspecified),3.11 µM,13.5 µM,1.87 µM,3.68 µM,13.4 µM,27.2 µM,2.88,7.72 µM,2.39 µM,8.87 µM,1.85 µM,4.42 µM,2.4 µM,6.73 µM,3.57 µM,9.43 µM,1.76 µM,7.34 µM,2.7 µM,9.19 µM
O=CN/C=C/c1cc(O)ccc1O,–,> 100 µM,–,> 100 µM,–,> 85.4 µM,–,> 71.9 µM,–,23.9 µM,–,> 100 µM,–,> 100 µM,–,26.5 µM,–,48.2 µM,–,27.8 µM
OCc1ccc(N2CCC2c2ccc(F)cc2)cc1Cl (stereo unspecified),0.256 µM,1.9 µM,17.5 µM,46 µM,7.44 µM,64 µM,11.4,29.3 µM,26 µM,> 82.9 µM,24.3 µM,> 66.4 µM,10.1 µM,> 68 µM,3.44 µM,15.3 µM,22.6 µM,54.8 µM,0.278 µM,1.98 µM
Cc1nc2ccccc2c(N)c1-c1cc(C)c2c(C)nc3ccccc3c2n1,1.59 µM,3.06 µM,0.627 µM,1.95 µM,0.243 µM,0.681 µM,–,–,0.362 µM,2.12 µM,0.785 µM,2.15 µM,1.77 µM,3.36 µM,0.817 µM,2.25 µM,0.19 µM,2.59 µM,1.79 µM,3.29 µM
CCOC(=O)CN1C(=O)c2cccc3cc([N+](=O)[O-])cc(c23)C1=O,–,28.9 µM,–,14.8 µM,–,26.6 µM,–,2.87 µM,–,1.5 µM,–,8.73 µM,–,32.3 µM,–,–,–,0.381 µM,–,7.73 µM
